Patent publication US20120004245A1, “COMPOUNDS FOR THE TREATMENT OF POSTERIOR SEGMENT DISORDERS AND DISEASES” (ALCON RESEARCH, LTD., priority 2010, published 2012)
Like-named read-outs stand apart in the source and are kept apart here.

B1: Lucentis: Fab fragment of a humanized monoclonal antibody that binds all isoforms of VEGF-A (antibody, chains of the INN, looked up, V domains shown)
VH: EVQLVESGGGLVQPGGSLRLSCAASGYDFTHYGMNWVRQAPGKGLEWVGWINTYTGEPTYAADFKRRFTFSLDTSKSTAYLQMNSLRAEDTAVYYCAKYPYYYGTSHWYFDVWGQGTLVTVSS
VL: DIQLTQSPSSLSASVGDRVTITCSASQDISNYLNWYQQKPGKAPKVLIYFTSSLHSGVPSRFSGSGSGTDFTLTISSLQPEDFATYYCQQYSTVPWTFGQGTKVEIK
modifications: Fab

Experiments:
[1] = test system: VEGF-induced retinal vascular permeability; assay: VEGF-induced retinal vascular permeability in the rat, intravitreal delivery; format: in vivo; conditions: for Efficacy (0.1%) / Efficacy (1%): inhibition of VEGF-induced RVP vs vehicle-injected controls, *P<0.05; for Efficacy (0.1%): single ivt injection of 0.1% suspension; for Efficacy (1%): single ivt injection of 1% suspension; for ED50 (nmole) / ED50 (μg) / Potency: rat VEGF-induced RVP; for ED50 (nmole) / ED50 (μg): dose-response, single ivt injection; for Potency: relative to reference standard, * = equipotent, 95% CL encompass 1.0
Protocol: METHODS: Adult Sprague-Dawley rats were anesthetized with intramuscular ketamine/xylazine and their pupils dilated with topical cycloplegics. […] Ten μl of each compound was intravitreally injected in each treatment eye (n=5˜6 animals per group). Three days following first intravitreal injection, all animals received an intravitreal injection of 10 μl 500 ng hr VEGF in both eyes. Twenty-four hours post-injection of VEGF, intravenous infusion of 3% Evans blue dye was performed in all animals, where 50 mg/kg of Evans blue dye was injected via the lateral tail vein during general anesthesia. After the dye had circulated for 90 minutes, the rats were euthanized. The rats were then systemically perfused with balanced salt solution, and then both eyes of each rat were immediately enucleated and the retinas harvested using a surgical microscope. After measurement of the retinal wet weight, the Evans blue dye was extracted by placing the retina in a 0.2 ml formamide (Sigma) and then the homogenized and ultracentrifuged. Blood samples were centrifuged and the plasma diluted 100 fold in formamide. For both retina and plasma samples, 60 μl of supernatant was used to measure the Evans blue dye absorbance (ABS) with at 620/740 nm. The blood-retinal barrier breakdown and subsequent retinal vascular permeability as measured by dye absorbance were calculated as means+/−s.e.m. of net ABS/wet weight/plasma ABS. One way ANOVA was used to determine an overall difference between treatment means. And a test or Man-Whitney rank sum test was performed for a pair-wise comparison between treatment groups, where P<0.05 was considered significant.

[2] = test system: bovine retinal endothelial cells (BRECs); assay: VEGF-induced proliferation of bovine retinal endothelial cells (BrdU ELISA); format: cell-based; conditions: for EC50: Bos taurus, Endothelial cell, read-out: VEGF ind BREC prolif EC50; for activity against VEGF-induced proliferation: in words, compared to Compounds I-VII
Protocol: METHODS. […] After another 22-24 hours the cells are treated with or without 50 ng/ml VEGF media and the test compounds in the 1% FBS media. After 30 hours BrdU is then added for the final 16 hours of the incubation. All cells are then fixed and assayed with a colorimetric BrdU ELISA kit.

[3] = test system: preretinal neovascularization; assay: Rat oxygen-induced retinopathy (OIR) model, prevention; format: in vivo; conditions: for ED50 (nmole) / ED50 (μg) / Potency: Rat OIR Prevention; for ED50 (nmole) / ED50 (μg): dose-response, single ivt injection; for Potency: relative to reference RTKi (=1); for Efficacy (0.1%) Median-value / Efficacy (1%) Median-value: rat OIR prevention, vs vehicle, *P<0.05; for Efficacy (0.1%) Median-value: single ivt injection of 0.1% suspension; for Efficacy (1%) Median-value: single ivt injection of 1% suspension
Text: (§1) METHODS: Pregnant Sprague-Dawley rats were received at 14 days gestation and subsequently gave birth on Day 22±1 of gestation. Immediately following parturition, pups were pooled and randomized into separate litters (n=17 pups/litter), placed into separate shoebox cages inside oxygen delivery chamber, and subjected to an oxygen-exposure profile from Day 0-14 postpartum. Litters were then placed into room air from Day 14/0 through Day 14/6 (days 14-20 postpartum). For prevention studies, each pup was randomly assigned into various treatment groups on Day 14/0. For those randomized into an injection treatment group: one eye received a 5 μl intravitreal injection of between 0.01%-1% of a RTKi and the contralateral eye received a 5 μl intravitreal injection of vehicle. At Day 14/6 (20 days postpartum), all animals were euthanized. For regression studies, each pup was randomly assigned as an oxygen-exposed control or into various treatment groups on […]. For those randomized into an injection treatment group: one eye received a 5 μl intravitreal injection of between 0.01%-1% RTKi and the contralateral eye received a 5 μl intravitreal injection of vehicle. At Day 14/7 (21 days postpartum), all animals were euthanized. Immediately following euthanasia, retinas from all rat pups were harvested, fixed in 10% neutral buffered formalin for 24 hours, subjected to ADPase staining, and fixed onto slides as whole mounts. Digital images were acquired from each retinal flat mount that was adequately prepared. Computerized image analysis was used to obtain a NV clockhour score from each readable sample. Each clockhour out of 12 total per retina was assessed for the presence or absence of preretinal NV. Statistical comparisons using median scores for NV clockhours from each treatment group were utilized in nonparametric analyses. Each noninjected pup represented one NV score by taking the average value of both eyes and was used in comparisons against each dosage group. Because the pups were randomly assigned and no difference was observed between oxygen-exposed control pups from all litters, the NV scores were combined for all treatment groups. P≦0.05 was considered statistically significant.

KDR (VEGFR2) kinase = target: T1, KDR (VEGFR2) kinase (Homo sapiens, UniProt P35968); assay: KDR HTRF kinase assay (KinEASE-TK); format: biochemical; conditions: for IC50: HTRF enzyme assay, KDR (human VEGFR2); for activity against KDR: in words, compared to Compounds I-VII
T1 construct: purchased Cell Signaling Technology
T1 sequence (P35968 20-1356): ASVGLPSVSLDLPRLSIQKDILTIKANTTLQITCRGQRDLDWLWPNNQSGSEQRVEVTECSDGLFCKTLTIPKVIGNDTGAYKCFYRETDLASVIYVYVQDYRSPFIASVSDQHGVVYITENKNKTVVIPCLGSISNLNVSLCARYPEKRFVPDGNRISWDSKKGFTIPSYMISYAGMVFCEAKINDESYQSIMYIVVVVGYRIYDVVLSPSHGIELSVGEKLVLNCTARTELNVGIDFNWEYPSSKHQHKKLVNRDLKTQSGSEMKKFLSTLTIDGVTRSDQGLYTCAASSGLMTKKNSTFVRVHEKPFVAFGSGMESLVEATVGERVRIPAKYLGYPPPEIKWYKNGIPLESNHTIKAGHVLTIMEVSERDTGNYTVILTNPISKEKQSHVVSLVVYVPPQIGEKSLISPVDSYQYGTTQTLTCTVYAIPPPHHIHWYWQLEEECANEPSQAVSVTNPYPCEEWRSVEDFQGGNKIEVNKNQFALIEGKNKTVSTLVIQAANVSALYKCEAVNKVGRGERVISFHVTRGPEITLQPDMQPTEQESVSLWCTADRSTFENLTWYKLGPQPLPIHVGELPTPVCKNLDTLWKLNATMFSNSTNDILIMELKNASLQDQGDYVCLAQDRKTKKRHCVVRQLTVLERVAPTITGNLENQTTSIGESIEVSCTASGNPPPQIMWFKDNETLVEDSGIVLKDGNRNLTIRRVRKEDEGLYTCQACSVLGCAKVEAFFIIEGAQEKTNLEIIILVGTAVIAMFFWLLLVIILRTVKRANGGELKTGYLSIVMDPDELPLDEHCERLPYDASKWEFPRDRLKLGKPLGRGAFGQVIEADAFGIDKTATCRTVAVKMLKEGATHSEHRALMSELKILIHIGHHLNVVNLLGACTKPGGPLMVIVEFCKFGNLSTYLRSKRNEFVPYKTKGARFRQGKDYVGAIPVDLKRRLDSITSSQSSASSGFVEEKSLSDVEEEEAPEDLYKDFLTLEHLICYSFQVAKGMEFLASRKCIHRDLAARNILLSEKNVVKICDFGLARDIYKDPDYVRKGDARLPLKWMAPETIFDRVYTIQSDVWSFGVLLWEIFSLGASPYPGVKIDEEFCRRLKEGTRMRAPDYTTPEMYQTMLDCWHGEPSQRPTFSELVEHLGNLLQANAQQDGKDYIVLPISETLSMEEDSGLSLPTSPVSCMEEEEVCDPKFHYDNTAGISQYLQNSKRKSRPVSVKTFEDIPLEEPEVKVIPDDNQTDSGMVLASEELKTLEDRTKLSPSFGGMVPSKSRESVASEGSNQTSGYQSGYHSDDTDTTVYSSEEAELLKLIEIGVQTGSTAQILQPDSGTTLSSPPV
Protocol: METHODS. A 7-point HTRF (Homogeneous Time Resolved Fluorescence) kinase assays were performed using a Biomek 3000 Robotic Workstation in a 96-well plate format to determine IC50 values for the test compounds for KDR (VEGFR2) kinase using KinEASE-TK kit from CisBio. This is a general kit for tyrosine kinases including KDR kinase. The KDR kinase was purchased from Cell Signaling Technology. The assay is run in two steps. The phosphorylation of the biotin-tagged generic peptide substrate ([…]) is initiated by the addition of ATP ([…]) in the presence of KDR kinase (5 ng in […] reaction mixture) in step 1 and the reaction is stopped after 30 min incubation at room temperature by the addition of a mixture containing two HTRF detection reagents and EDTA in step 2. The substrate, enzyme, and ATP dilutions were made with the buffer provided by CisBio. Compound dilutions were made either in 5% DMSO or 10:10, (DMSO:Ethanol) to prepare 4× working stock solutions. The HTRF detection reagents were an antibody to phosphotyrosine, labeled with Eu(K) (the HTRF donor), and a streptavidin-XL665 (the HTRF acceptor).

[4] = test system: preretinal neovascularization; assay: Rat oxygen-induced retinopathy (OIR) model, regression; format: in vivo; conditions: for ED50 (nmole) / ED50 (μg): dose-response, single ivt injection; for Potency: relative to reference RTKi (=1)
Text: as §1

[5] = test system: laser-induced choroidal neovascularization (CNV); assay: Mouse laser-induced CNV, prevention; conditions: single ivt injection
Text: METHODS. CNV was generated by laser-induced rupture of Bruch's membrane. […] A hand-held cover slip was applied to the cornea and used as a contact lens to aid visualization of the fundus. Three to four retinal burns were placed in randomly assigned eye (right or left eye for each mouse) using the Alcon 532 nm EyeLite laser with a slit lamp delivery system. The laser burns were used to generate a rupture in Bruch's membrane, which was indicated ophthalmoscopically by the formation of a bubble under the retina. Only mice with laser burns that produced three bubbles per eye were included in the study. Burns were typically placed at the 3, 6, 9 or 12 o'clock positions in the posterior pole of the retina, avoiding the branch retinal arteries and veins.
Each mouse was randomly assigned into one of the following treatment groups: noninjected controls, sham-injected controls, vehicle-injected mice, or one of three Compound-injected groups. Control mice received laser photocoagulation in both eyes, where one eye received a sham injection, i.e. a pars plana needle puncture. For intravitreal-injected animals, one laser-treated eye received a 2 or 5 μl intravitreal injection of 0.1%-3% of a RTKi or vehicle. For prevention studies, the intravitreal injection was performed immediately after laser photocoagulation. […] At 14 days post-laser, all mice were anesthetized and systemically perfused with fluorescein-labeled dextran. Eyes were then harvested and prepared as choroidal flat mounts with the RPE side oriented towards the observer. All choroidal flat mounts were examined using a fluorescent microscope. Digital images of the CNV were captured, where the CNV was identified as areas of hyperfluorescence within the pigmented background. Computerized image analysis was used to delineate and measure the two dimensional area of the hyperfluorescent CNV per lesion (μm^2) for the outcome measurement. The median CNV area/burn per mouse per treatment group or the mean CNV area/burn per treatment group was used for statistical analysis depending on the normality of data distribution; P<0.05 was considered significant.

[6] = test system: best-corrected visual acuity (BCVA); conditions: intravitreal, 4 week intervals, Phase III trials; cited from earlier work
[7] = 50 ng/ml VEGF, BrdU incorporation
[8] = 20 μg/1.0%, * significant vs vehicle-injected controls

Row | Molecule | Efficacy (0.1%) [1] | Efficacy (1%) [1] | ED50 (nmole) [1] | ED50 (μg) [1] [µg] | Potency [1] | EC50 [2, 7] [nM] | ED50 (nmole) [3] [nmol] | ED50 (μg) [3] [µg] | Potency [3] | Efficacy (0.1%) Median-value [3] | Efficacy (1%) Median-value [3] | ED50 (nmole) [4] [nmol] | ED50 (μg) [4] [µg] | Potency [4] | Prevention Efficacy ([5]; 2 μg/0.1%) | Prevention Efficacy [5, 8] | also measured
1 | Cc1cc(O)cc(NC(=O)Nc2ccc(-c3cccc4[nH]nc(N)c34)cc2)c1 [III, 1-[4-(3-Amino-1H-indazol-4-yl)-phenyl]-3-(3-hydroxy-5-methyl-phenyl)-urea] | −96.7% | −316.9% | >80.3 nmol | >30 | 0.028 | 0.45 ± 0.05 | 15.85 | 5.92 | 4.03 | 1.5% | 100%* | – | – | – | – | – | –
2 | Nc1n[nH]c2cccc(-c3ccc(NC(=O)Nc4c(Cl)cccc4Cl)cc3)c12 [VIII] | – | – | – | – | – | – | – | – | – | – | – | – | – | – | – | – | IC50 (KDR (VEGFR2) kinase): > 10 µM; activity against KDR (KDR (VEGFR2) kinase): essentially have no activity; VEGF ind BREC prolif EC50 [2, 7]: Not Active; activity against VEGF-induced proliferation [2]: completely inactive
3 | Cc1cccc(NC(=O)Nc2ccc(-c3csc4c(-c5ccncc5)cnc(N)c34)cc2)c1 [VI, 1-[4-(4-Amino-7-pyridin-4-yl-thieno[3,2-c]pyridin-3-yl)-phenyl]-3-m-tolyl-urea] | 106.5%* | 70.6%* | – | – | – | 0.07 ± 0.069 | 13.31 | 6.01 | 3.86 | 35.7% | 88.4* % | 39.46 | 17.82 | 1.75 | – | – | –
4 | Cc1cccc(NC(=O)Nc2ccc(-c3cncc4[nH]nc(N)c34)cc2)c1 [Compound I, 1-[4-(3-Amino-1H-pyrazolo[3,4-c]pyridin-4-yl)-phenyl]-3-m-tolyl-urea] | 65.4%* | 88.9%* | 4.04^ nmole | 1.447 | 1.2* | – | 13.44 | 4.82 | 5.75 | 100%* | 100%* | 25.47 | 9.13 | 2.26 | −53.8% | 37.6% | EC50 [2]: 0.16 nM
5 | Cc1cccc(NC(=O)Nc2ccc(-c3csc4ncnc(N)c34)cc2)c1 [Compound II, 1-[4-(4-Amino-thieno[2,3-d]pyrimidin-5-yl)-phenyl]-3-m-tolyl-urea] | 85.2%* | 85.7%* | 7.62 nmol | 2.86 | 0.392* | 0.11 | 12.17 | 4.57 | 6.23 | 32.2% | 100%* | 24.31 | 9.13 | 2.3 | 2 μg/0.1% = 40.6% | 20 μg/1.0% = 69.0%* | Relative Potency vs Reference ([2]; BREC proliferation, relative to reference standard RTKi): 14.5 ± 15.1
6 | COCCOc1ccc(-c2ccc(NC(=O)Nc3cccc(C)c3)cc2)c2c(N)n[nH]c12 [IV, 1-{4-[3-Amino-7-(2-methoxy-ethoxy)-1H-indazol-4-yl]-phenyl}-3-m-tolyl-urea] | 73.9%* | −148.2% | – | – | – | 0.1 ± 0.01 | 13.23 | 5.71 | 4.2 | 100%* | 100%* | – | – | – | 2 μg/0.1% = 1.1% | 20 μg/1.0% = 49.7%* | Prevention Efficacy ([5]; 6 μg/0.3%): 6 μg/0.3% = 13.9%
7 | Cc1ccc(F)c(NC(=O)Nc2ncc(-c3cccc4[nH]nc(N)c34)cn2)c1 [IX] | – | – | – | – | – | – | – | – | – | – | – | – | – | – | – | – | IC50 (KDR (VEGFR2) kinase): > 10 µM; activity against KDR (KDR (VEGFR2) kinase): essentially have no activity; VEGF ind BREC prolif EC50 [2, 7]: Not Active; activity against VEGF-induced proliferation [2]: completely inactive
8 | Cc1cccc(NC(=O)Nc2ccc(-c3csc4ccnc(N)c34)cc2)c1 [V, 1-[4-(4-Amino-thieno[3,2-c]pyridin-3-yl)-phenyl]-3-m-tolyl-urea] | 64.0% | 40.4% | 3.8^ nmole | 1.42 | 1.38* | 1.57 ± 1.24 | 24.11 | 9.03 | 1.94 | 16.9% | 100%* | – | – | – | – | – | –
9 | Cc1cccc(NC(=O)Nc2ccc(-c3csc4c(-c5cccnc5)cnc(N)c34)cc2)c1 [VII, 1-[4-(4-Amino-7-pyridin-3-yl-thieno[3,2-c]pyridin-3-yl)-phenyl]-3-m-tolyl-urea] | 84%* | 73.5%* | 5.47 nmol | 2.47 | 0.621* | 0.11 ± 0.086 | 15.74 | 7.11 | 3.23 | 9.6% | 100* % | 20.86 | 9.42 | 2.49 | – | – | –
10 | B1 | – | – | – | – | – | – | – | – | – | – | – | – | – | – | – | – | treated patients with maintained best-corrected visual acuity (BCVA) [6]: 95%
